Laboratory results reported in patent publication US20090209536A1, “AMINOQUINAZOLINE CANNABINOID RECEPTOR MODULATORS FOR TREATMENT OF DISEASE” (KALYPSYS, INC., priority 2007, published 2009).

Tests used:
[1] = target: T1, human cannabinoid receptor type 2 (Homo sapiens, UniProt P34972); test: Human CB2 Radioligand Binding Assay; conditions: competition with [3H] CP-55,940; membranes from stably transfected CHO CB2 cells; read-out: CB2 Ligand Binding Asssay EC50
T1 construct: expressed in transfected cells; membrane preparation
How it was run: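 Filtration competition binding on membranes from CHO cells stably expressing human CB2, with [3H]CP-55,940 at its lot-specific Kd, in 50 mM Tris-HCl pH 7.4, EGTA, MgCl2, 5 mg/ml BSA, 1% DMSO; 90 min at 30° C. Compounds at 10 uM single point or dose-response; bound radioactivity by scintillation, 100 nM CP-55,940 as 100% efficacy.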

[2] = target: T2, human cannabinoid receptor type 1 (Homo sapiens, UniProt P21554); test: Human CB1 Radioligand Binding Assay (basis of selectivity, CB2 vs. CB1); conditions: CB1: HEK 293 EBNA cells expressing human CB1; CB2: CHO CB2 membranes
T2 construct: purchased Perkin Elmer RBHCB1M; host or cells: HEK 293 EBNA cells
Procedure: 2. Human CB1 Radioligand Binding Assay
The incubation buffer was composed of 50 mM Tris-HCl pH 7.4, 2.5 mM EDTA, 5 mM MgCl2, 5.0 mg/ml fatty acid free BSA and the wash buffer was composed of 50 mM Tris-HCl pH 7.4, 2.5 mM EDTA, 5 mM MgCl2, 0.5 mg/ml fatty acid free BSA.

T2 sequence (P21554 whole entry): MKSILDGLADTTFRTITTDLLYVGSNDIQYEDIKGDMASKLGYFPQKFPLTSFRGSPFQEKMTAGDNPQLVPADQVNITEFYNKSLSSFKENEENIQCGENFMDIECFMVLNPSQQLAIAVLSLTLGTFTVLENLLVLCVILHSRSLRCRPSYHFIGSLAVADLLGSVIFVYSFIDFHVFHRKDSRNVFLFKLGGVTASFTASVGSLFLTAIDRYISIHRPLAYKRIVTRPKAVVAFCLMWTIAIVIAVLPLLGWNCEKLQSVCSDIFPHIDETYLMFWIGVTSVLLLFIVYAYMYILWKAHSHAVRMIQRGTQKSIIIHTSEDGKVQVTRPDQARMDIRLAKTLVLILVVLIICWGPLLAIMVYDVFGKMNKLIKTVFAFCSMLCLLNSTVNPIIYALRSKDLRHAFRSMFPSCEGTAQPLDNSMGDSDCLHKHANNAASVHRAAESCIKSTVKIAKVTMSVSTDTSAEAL
T1 sequence (P34972 whole entry): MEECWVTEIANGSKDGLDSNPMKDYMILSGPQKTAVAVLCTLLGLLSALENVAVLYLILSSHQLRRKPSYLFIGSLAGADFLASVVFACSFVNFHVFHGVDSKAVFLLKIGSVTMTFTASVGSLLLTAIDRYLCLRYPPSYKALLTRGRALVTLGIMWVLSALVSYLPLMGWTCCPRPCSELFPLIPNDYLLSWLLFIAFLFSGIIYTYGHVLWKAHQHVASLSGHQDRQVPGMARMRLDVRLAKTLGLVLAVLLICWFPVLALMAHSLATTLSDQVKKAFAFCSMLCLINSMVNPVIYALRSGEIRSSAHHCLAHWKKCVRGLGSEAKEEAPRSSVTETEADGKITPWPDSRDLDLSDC

EC50 [1] [nM] | Selectivity, CB2 vs. CB1 [2] | Compound
> 1000 | − (− indicates ≦ 10−fold) | Cn1ccnc1C(=O)N1CCN(c2nc(-c3ccccc3Cl)nc3ccccc23)CC1 [Example 263, (4-(2-(2-chlorophenyl)quinazolin-4-yl)piperazin-1-yl)(1-methyl-1H-imidazol-2-yl)methanone]
> 1000 | − (− indicates ≦ 10−fold) | Clc1ccccc1-c1nc(N2CCN(c3nccs3)CC2)c2ccccc2n1 [Example 264, 2-(4-(2-(2-Chlorophenyl)quinazolin-4-yl)piperazin-1-yl)thiazole]
< 1000 | + (+ indicates > 10−fold) | CC(=O)N1CCN(c2nc(-c3ccccc3Cl)nc3cccc(Cl)c23)CC1 [Example 265, 1-(4-(5-Chloro-2-(2-chlorophenyl)quinazolin-4-yl)piperazin-1-yl)ethanone]
< 1000 | + (+ indicates > 10−fold) | CCOC(=O)N1CCN(c2nc(-c3ccccc3Cl)nc3cccc(Cl)c23)CC1 [Example 266, Ethyl 4-(5-chloro-2-(2-chlorophenyl)quinazolin-4-yl)piperazine-1-carboxylate]
< 1000 | + (+ indicates > 10−fold) | Clc1ccccc1-c1nc(N2CCCC2)c2c(Cl)cccc2n1 [Example 267, 5-Chloro-2-(2-chlorophenyl)-4-(pyrrolidin-1-yl)quinazoline]
< 1000 | − (− indicates ≦ 10−fold) | CC(=O)N1CCN(c2nc(-c3ccccc3Cl)nc3ccc(F)cc23)CC1 [Example 268, 1-(4-(2-(2-Chlorophenyl)-6-fluoroquinazolin-4-yl)piperazin-1-yl)ethanone]
< 1000 | + (+ indicates > 10−fold) | CCOC(=O)N1CCN(c2nc(-c3ccccc3Cl)nc3ccc(F)cc23)CC1 [Example 269, Ethyl 4-(2-(2-chlorophenyl)-6-fluoroquinazolin-4-yl)piperazine-1-carboxylate]
> 1000 | − (− indicates ≦ 10−fold) | Fc1ccc2nc(-c3ccccc3Cl)nc(N3CCCC3)c2c1 [Example 270, 2-(2-Chlorophenyl)-6-fluoro-4-(pyrrolidin-1-yl)quinazoline]
< 1000 | − (− indicates ≦ 10−fold) | CC(=O)N1CCN(c2nc(-c3ccccc3F)nc3ccc(Cl)cc23)CC1 [Example 271, 1-(4-(6-Chloro-2-(2-fluorophenyl)quinazolin-4-yl)piperazin-1-yl)ethanone]
> 1000 | − (− indicates ≦ 10−fold) | CCOC(=O)N1CCN(c2nc(-c3ccccc3F)nc3ccc(Cl)cc23)CC1 [Example 272, Ethyl 4-(6-chloro-2-(2-fluorophenyl)quinazolin-4-yl)piperazine-1-carboxylate]
< 1000 | − (− indicates ≦ 10−fold) | Fc1ccccc1-c1nc(N2CCCC2)c2cc(Cl)ccc2n1 [Example 273, 6-Chloro-2-(2-fluorophenyl)-4-(pyrrolidin-1-yl)quinazoline]
< 1000 | − (− indicates ≦ 10−fold) | COc1ccc2nc(-c3ccccc3F)nc(N3CCN(C(C)=O)CC3)c2c1 [Example 274, 1-(4-(2-(2-Fluorophenyl)-6-methoxyquinazolin-4-yl)piperazin-1-yl)ethanone]
> 1000 | + (+ indicates > 10−fold) | CCOC(=O)N1CCN(c2nc(-c3ccccc3F)nc3ccc(OC)cc23)CC1 [Example 275, Ethyl 4-(2-(2-fluorophenyl)-6-methoxyquinazolin-4-yl)piperazine-1-carboxylate]
> 1000 | − (− indicates ≦ 10−fold) | COc1ccc2nc(-c3ccccc3F)nc(N3CCCC3)c2c1 [Example 276, 2-(2-Fluorophenyl)-6-methoxy-4-(pyrrolidin-1-yl)quinazoline]
> 1000 | − (− indicates ≦ 10−fold) | CC(=O)N1CCN(c2nc(-c3ccc(C(C)(C)C)cc3)nc3ccc(Cl)cc23)CC1 [Example 277, 1-(4-(2-(4-tert-Butylphenyl)-6-chloroquinazolin-4-yl)piperazin-1-yl)ethanone]
< 1000 | − (− indicates ≦ 10−fold) | CC(C)(C)c1ccc(-c2nc(N3CCCC3)c3cc(Cl)ccc3n2)cc1 [Example 278, 2-(4-tert-Butylphenyl)-6-chloro-4-(pyrrolidin-1-yl)quinazoline]
< 1000 | + (+ indicates > 10−fold) | CCOC(=O)N1CCN(c2nc(-c3ccccc3F)nc3ccccc23)CC1 [Example 279, Ethyl 4-(2-(2-fluorophenyl)quinazolin-4-yl)piperazine-1-carboxylate]

EC50 [1] [nM] | Selectivity, CB2 vs. CB1 [2] | Compound
< 1000 | + (+ indicates > 10−fold) | CC(=O)N1CCN(c2nc(-c3ccccc3F)nc3cccc(F)c23)CC1 [Example 280, 1-(4-(5-Fluoro-2-(2-fluorophenyl)quinazolin-4-yl)piperazin-1-yl)ethanone]
< 1000 | + (+ indicates > 10−fold) | CCOC(=O)N1CCN(c2nc(-c3ccccc3F)nc3cccc(F)c23)CC1 [Example 281, Ethyl 4-(5-fluoro-2-(2-fluorophenyl)quinazolin-4-yl)piperazine-1-carboxylate]
< 1000 | + (+ indicates > 10−fold) | Fc1ccccc1-c1nc(N2CCCC2)c2c(F)cccc2n1 [Example 282, 5-Fluoro-2-(2-fluorophenyl)-4-(pyrrolidin-1-yl)quinazoline]
> 1000 | − (− indicates ≦ 10−fold) | CC(C)CC(=O)N1CCN(c2nc(-c3ccccc3Cl)nc3cccc(Cl)c23)CC1 [Example 283, 1-(4-(5-Chloro-2-(2-chlorophenyl)quinazolin-4-yl)piperazin-1-yl)-3-methylbutan-1-one]
> 1000 | − (− indicates ≦ 10−fold) | CCCNC(=O)N1CCN(c2nc(-c3ccccc3Cl)nc3cccc(Cl)c23)CC1 [Example 284, 4-(5-Chloro-2-(2-chlorophenyl)quinazolin-4-yl)-N-propylpiperazine-1-carboxamide]
> 1000 | − (− indicates ≦ 10−fold) | CCCS(=O)(=O)N1CCN(c2nc(-c3ccccc3Cl)nc3cccc(Cl)c23)CC1 [Example 285, 5-Chloro-2-(2-chlorophenyl)-4-(4-(propylsulfonyl)piperazin-1-yl)quinazoline]
< 1000 | + (+ indicates > 10−fold) | CCOC(=O)N1CCN(c2nc(Nc3ccccc3)nc3cc(C(C)(C)C)ccc23)CC1 [Example 286, Ethyl 4-(7-tert-butyl-2-(phenylamino)quinazolin-4-yl)piperazine-1-carboxylate]
< 1000 | + (+ indicates > 10−fold) | CC(C)(C)c1ccc2c(N3CCCC3)nc(Nc3ccccc3)nc2c1 [Example 287, 7-tert-Butyl-N-phenyl-4-(pyrrolidin-1-yl)quinazolin-2-amine]
< 1000 | + (+ indicates > 10−fold) | CC(C)(C)c1ccc2c(N3CCCC3)nc(Nc3ccc(F)cc3F)nc2c1 [Example 288, 7-tert-Butyl-N-(2,4-difluorophenyl)-4-(pyrrolidin-1-yl)quinazolin-2-amine]
< 1000 | − (− indicates ≦ 10−fold) | CC(C)(C)c1ccc2c(N3CCCC3)nc(Nc3ccc(F)c(F)c3)nc2c1 [Example 289, 7-tert-Butyl-N-(3,4-difluorophenyl)-4-(pyrrolidin-1-yl)quinazolin-2-amine]
< 1000 | + (+ indicates > 10−fold) | CC(C)(C)c1ccc2c(N3CCCC3)nc(Nc3cccc(Cl)c3)nc2c1 [Example 290, 7-tert-Butyl-N-(3-chlorophenyl)-4-(pyrrolidin-1-yl)quinazolin-2-amine]
> 1000 | − (− indicates ≦ 10−fold) | O=S(=O)(NCc1nc(N2CCOCC2)c2ccccc2n1)c1ccc(Cl)cc1Cl [Example 294, 2,4-Dichloro-N-((4-morpholinoquinazolin-2-yl)methyl)benzenesulfonamide]
> 1000 | − (− indicates ≦ 10−fold) | COc1cc2nc(Oc3ccc(C(C)(C)C)cc3)nc(N3CCCC3)c2cc1OC [Example 296, 2-(4-tert-Butylphenoxy)-6,7-dimethoxy-4-(pyrrolidin-1-yl)quinazoline]
> 1000 | − (− indicates ≦ 10−fold) | COc1ccc(Oc2nc(N3CCCC3)c3cc(OC)c(OC)cc3n2)cc1 [Example 297, 6,7-Dimethoxy-2-(4-methoxyphenoxy)-4-(pyrrolidin-1-yl)quinazoline]
> 1000 | − (− indicates ≦ 10−fold) | COc1cc2nc(Nc3ccc(C(C)(C)C)cc3)nc(N3CCCC3)c2cc1OC [Example 298, N-(4-tert-butylphenyl)-6,7-dimethoxy-4-(pyrrolidin-1-yl)quinazolin-2-amine]
> 1000 | + (+ indicates > 10−fold) | O=S(=O)(NCc1nc(N2CCCC2)c2ccccc2n1)c1ccc2ccccc2c1 [Example 299, N-((4-(Pyrrolidin-1-yl)quinazolin-2-yl)methyl)naphthalene-2-sulfonamide]
< 1000 | + (+ indicates > 10−fold) | O=S(=O)(NCc1nc(N2CCOCC2)c2ccccc2n1)c1cccc2ccccc12 [Example 300, N-((4-Morpholinoquinazolin-2-yl)methyl)naphthalene-1-sulfonamide]
